What all share (format): in vivo, guinea pigs
Test [1] has as its system bronchospasms elicited by 5-hydroxytryptamine. Kind of test: Bronchodilator activity (Konzett assay) against bronchospasm elicited by intravenous 5-hydroxytryptamine. The settings on record: Cavia porcellus, guinea pig, three logarithmic cumulative doses, spasmogen 5-hydroxytryptamine i.v., read-out: Bronchodilator Activity (Konzett Assays) ED50, Spasmogenic Agent 5-hydroxytryptamine. On the procedure: (§1) The compounds of this invention are useful as bronchodilators for the treatment of asthma and chronic bronchitis. Bronchodilator activity is determined in guinea pigs against bronchospasms elicited by intravenous injections of 5-hydroxytryptamine, histamine or acetylcholine by the Konzett procedure. [See J. Lulling, P. Lievens, F. El Sayed and J. Prignot, Arzneimittel-Forschung, 18, 955 (1968).]
(§2) In Table 16 which follows bronchodilator activity for representative compounds of this invention against one or more of three spasmogenic agents is expressed as an ED50 determined from the results obtained with three logarithmic cummulative intravenous doses. In this assay, these compounds of this invention provide an effect of longer duration than does natural 1-PGE1 or 1-PGE2.

Test [2] has as its system bronchospasms elicited by histamine. Kind of test: Bronchodilator activity (Konzett assay) against bronchospasm elicited by intravenous histamine. As to conditions: Cavia porcellus, guinea pig, three logarithmic cumulative doses, spasmogen histamine i.v., read-out: Bronchodilator Activity (Konzett Assays) ED50, Spasmogenic Agent histamine. On the procedure: as §1, §2
Test [3] concerns bronchospasms elicited by acetylcholine. Kind of test: Bronchodilator activity (Konzett assay) against bronchospasm elicited by intravenous acetylcholine. As to conditions: Cavia porcellus, guinea pig, three logarithmic cumulative doses, spasmogen acetylcholine i.v., read-out: Bronchodilator Activity (Konzett Assays) ED50, Spasmogenic Agent Acetylcholine. The protocol: as §1, §2

A word on the ED50: it is the dose that gives a 50% effect, or the effect in half of the subjects.

`C=CC(O)(C/C=C/[C@H]1[C@H](O)CC(=O)[C@@H]1C/C=C\CCCC(=O)O)CCCCC` (relative stereo) [9-oxo-11α,16-dihydroxy-16-vinyl-20-methyl-5-cis,13-trans-prostadienoic acid]: the 50% effective dose (ED50) in test [1] worked out at 2.06 µg/kg; in test [2] it was 2.3 µg/kg; in test [3] it was 4.3 µg/kg.

Consider `C=CC(O)(C/C=C/[C@H]1[C@H](O)CC(=O)[C@@H]1C/C=C\CCCC(=O)OC)CCCC` (relative stereo) [methyl-9-oxo-11α, 16-dihydroxy-16-vinyl-5-cis, 13-trans prostadienoate], for which the median effective dose (ED50) was found to be 0.354 µg/kg in test [1], 0.212 µg/kg in test [2] and 0.302 µg/kg in test [3].

Regarding `C=CC(O)(C/C=C/[C@H]1[C@H](O)CC(=O)[C@@H]1C/C=C\CCCC(=O)O)CCCC` (relative stereo) [9-oxo-11α,16-dihydroxy-16-vinyl-5-cis,13-trans-prostadienoic acid], the ED50 in test [1] stood at 0.252 µg/kg; in test [2], 0.162 µg/kg; in test [3], 0.78 µg/kg.

`C=CC(O)(C/C=C/[C@H]1[C@H](O)CC(=O)[C@@H]1CCCCCCC(=O)O)CCCC` (relative stereo) [9-Oxo-11α,16-dihydroxy-16-vinyl-13-trans-prostenoic Acid]: the 50% effective dose (ED50) in test [1] came to 1.86 µg/kg; in test [2], 1.11 µg/kg; in test [3], 760 µg/kg.

The values are drawn from patent US4518790A, “15-Deoxy-16-hydroxy-16-vinyl and cyclopropyl substituted prostanoic acids and congeners” (American Cyanamid Company, priority 1980, dated 1985).
